Laboratory results reported in patent US9745305B2, “Modulators of methyl modifying enzymes, compositions and uses thereof” (Constellation Pharmaceuticals, Inc., priority 2013, dated 2017).

Key:
EZH2 = EZH2 (Homo sapiens, UniProt Q15910); experiment: EZH2 Assay (3H SAM methyl transfer, rPRC2, FlashPlate); format: biochemical; conditions: rPRC2, biotinylated oligonucleosomes, 0.2 μM 3H SAM, 2 nM EZH2
Procedure: (§1) EZH2 Assay: Assays were carried out by mixing rPRC2 together with biotinylated oligonucleosome substrates in the presence of the radio-labeled enzyme co-factor, S-adenosyl-L-methionine (^3H SAM) (Perkin Elmer) and monitoring the enzymatically mediated transfer of tritiated methyl groups from ^3H SAM to histone lysine residues. The amount of resulting tritiated methyl histone product was measured by first capturing the biotinylated oligonucleosomes in streptavidin (SAV) coated FlashPlates (Perkin Elmer), followed by a wash step to remove unreacted ^3H SAM, and then counting on a TopCount NXT 384 well plate scintillation counter (Perkin Elmer). The final assay conditions for EZH2 were as follows: 50 mM Tris Buffer pH 8.5, 1 mM DTT, 69 μM Brij-35 detergent, 5.0 mM MgCl2, 0.1 mg/mL BSA, 0.2 μM ^3H SAM, 0.2 μM biotinylated oligonucleosomes, 3.6 μM H3K27me3 peptide and 2 nM EZH2.
(§2) Compound IC50 measurements were obtained as follows: Compounds were first dissolved in 100% DMSO as 10 mM stock solutions. Ten point dose response curves were generated by dispensing varying amounts of the 10 mM compound solution in 10 wells of the 384 well plate (Echo; Labcyte), pure DMSO was then used to backfill the wells to insure all wells have the same amount of DMSO. A 12.5 μL volume of the HMT enzyme, H3K27me3 peptide and oligonucleosome substrate in assay buffer was added to each well of the assay plate using a Multidrop Combi (ThermoFisher). Compounds were pre-incubated with the enzyme for 20 min, followed by initiation of the methyltransferase reaction by addition of 12.5 μL of ^3H SAM in assay buffer (final volume=25 μL). The final concentrations of compounds ranged from a top default concentration of 80 μM down to 0.16 μM in ten 2-fold dilution steps. Reactions were carried out for 60 minutes and quenched with 20 μL per well of 1.96 mM SAH, 50 mM Tris pH 8.5, 200 mM EDTA. Stopped reactions were transferred to SAV coated Flashplates (Perkin Elmer), incubated for 120 min, washed with a plate washer, and then read on the TopCount NXT (1.0 min/well) to measure the amount of methyl histone product formed during the reaction. The amount of methyl histone product was compared with the amount of product formed in the 0% and 100% inhibition control wells allowing the calculation of % Inhibition in the presence of the individual compounds at various concentrations. IC50's were computed using a 4 parameter fit non-linear curve fitting software package (XLFIT, part of the database package, ActivityBase (IDBS)) where the four parameters were IC50, Hill slope, pre-transitional baseline (0% INH), and post-transitional baseline (100% INH); with the latter two parameters being fixed to zero and 100%, respectively, by default.

[1] = system: H3K27me3 mark in Hela cells expressing wild type EZH2; experiment: H3K27me3 Alpha Hela Assay (AlphaLISA); format: cell-based; conditions: Homo sapiens, 72 hrs, read-out: H3K27me3_Alpha_HeLa (EC50)
Procedure: H3K27me3 Alpha Hela Assay (AlphaLISA). Ten different doses of each test compound (in a series of 3-fold dilutions) were plated in duplicate 384-well tissue culture treated plates (Catalog #781080; Greiner Bio One; Monroe, N.C.). Hela cells grown in culture were trypsinized and counted using a Countess® cell counter (Catalog # C10281; Life Technologies, Grand Island, N.Y.). Cell were diluted to 67,000 cells per mL in 10% DMEM (Catalog #10569-010 Life Technologies, Grand Island, N.Y.) and 15 μL (1,000 cells) were plated into each well using the Biotek MicroFlo™ Select Dispenser (BioTek Instruments, Inc. Vermont, USA),) of the 384-well plate. Plates were incubated at 37° C./5% CO2 for 72 hrs. One of the duplicate plates was processed for HeLa assay and the other for viability.
To the plate processed for AlphaLISA was added 5 μL per well Cell-Histone Lysis buffer (1×) (Catalog # AL009F1 Perkin Elmer; Waltham, Mass.) and the plate was incubated at RT for 30 minutes on a plate shaker with low speed (Model#4625-Q Thermo Scientific; Waltham, Mass.). Then, 10 μL per well Histone Extraction buffer (catalog # AL009F2; Perkin Elmer; Waltham, Mass.) was added and the plate further incubated at RT for 20 min on plate shaker with low speed. To each well was then added 10 μL per well of a 5× mix of anti-K27me3 acceptor beads plus Biotinylated anti-Histone H3 (C-ter) Antibody (diluted to 3 nM final) (Catalog #AL118 Perkin Elmer; Waltham, Mass.). Dilution of the acceptor beads and then anti-Histone H3 was with 1× Histone Detection buffer (Catalog # AL009F3 Perkin Elmer; Waltham, Mass.) which was produced diluted from the 10× stock provided. The plate was sealed with an aluminum plate sealer and incubated at 23° C. for 60 min. We then added 10 μL 5× solution of Streptavidin Donor beads (Catalog #6760002 Perkin Elmer; Waltham, Mass.) (20 μg/mL final in 1× Histone Detection Buffer), sealed the plate with Aluminum plate sealer and incubated at 23° C. for 30 min. The plates were then read using an EnVision-Alpha Reader (model #2104 Perkin Elmer; Waltham, Mass.).
Data from both assays was analyzed using Assay Assistant (Constellation Pharmaceuticals In-house product) and Activity Base (IDBS Ltd, Surrey, UK) template. Data files were imported to Assay Assistant and assay conditions were specified. A unique Analysis ID was created and the data files exported to Activity Base. An analysis template was created on Activity Base to measure dose-dependent inhibition of H3K27me3 mark and cell viability respectively. Readout of DMSO wells were used to normalize the data. Resulting curves were fitted using Activity base software Model 205 (IDBS Ltd, Surrey, UK). The data was checked for quality, validated and integrated in excel format using SARview (IDBS Ltd, Surrey, UK).

Y641N EZH2 = Y641N EZH2 (Homo sapiens, UniProt Q15910, Y641N); experiment: Assay for Y641N EZH2 (as the EZH2 assay, H3K27Me2 oligonucleosomes as substrate); format: biochemical; conditions: Y641N EZH2 mutant, reconstituted H3K27Me2 oligonucleosomes as substrate
Procedure: as §1, §2
Assay for Y641N EZH2 was performed as above using reconstituted H3K27Me2 oligonucleosomes as substrate.

Chain of EZH2 (Q15910 whole entry): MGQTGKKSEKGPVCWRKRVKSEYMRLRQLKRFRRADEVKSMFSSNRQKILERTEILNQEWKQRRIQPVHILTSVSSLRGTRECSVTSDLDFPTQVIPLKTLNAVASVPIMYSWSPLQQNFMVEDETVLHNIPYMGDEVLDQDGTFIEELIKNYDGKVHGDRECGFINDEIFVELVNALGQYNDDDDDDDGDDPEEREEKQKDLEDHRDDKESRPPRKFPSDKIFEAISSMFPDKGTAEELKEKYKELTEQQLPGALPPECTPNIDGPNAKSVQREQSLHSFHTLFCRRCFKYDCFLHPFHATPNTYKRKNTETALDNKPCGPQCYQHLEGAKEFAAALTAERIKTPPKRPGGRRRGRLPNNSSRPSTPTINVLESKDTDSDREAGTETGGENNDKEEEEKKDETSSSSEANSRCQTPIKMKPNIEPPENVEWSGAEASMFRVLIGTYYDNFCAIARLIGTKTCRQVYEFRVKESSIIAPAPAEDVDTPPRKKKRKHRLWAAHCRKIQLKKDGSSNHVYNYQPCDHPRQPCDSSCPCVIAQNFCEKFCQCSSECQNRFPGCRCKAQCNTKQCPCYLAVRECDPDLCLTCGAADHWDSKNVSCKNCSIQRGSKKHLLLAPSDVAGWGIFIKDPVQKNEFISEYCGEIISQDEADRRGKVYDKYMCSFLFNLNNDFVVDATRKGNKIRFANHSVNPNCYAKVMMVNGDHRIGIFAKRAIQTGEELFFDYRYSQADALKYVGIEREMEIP
Chain of EZH2 (O75530 whole entry partner): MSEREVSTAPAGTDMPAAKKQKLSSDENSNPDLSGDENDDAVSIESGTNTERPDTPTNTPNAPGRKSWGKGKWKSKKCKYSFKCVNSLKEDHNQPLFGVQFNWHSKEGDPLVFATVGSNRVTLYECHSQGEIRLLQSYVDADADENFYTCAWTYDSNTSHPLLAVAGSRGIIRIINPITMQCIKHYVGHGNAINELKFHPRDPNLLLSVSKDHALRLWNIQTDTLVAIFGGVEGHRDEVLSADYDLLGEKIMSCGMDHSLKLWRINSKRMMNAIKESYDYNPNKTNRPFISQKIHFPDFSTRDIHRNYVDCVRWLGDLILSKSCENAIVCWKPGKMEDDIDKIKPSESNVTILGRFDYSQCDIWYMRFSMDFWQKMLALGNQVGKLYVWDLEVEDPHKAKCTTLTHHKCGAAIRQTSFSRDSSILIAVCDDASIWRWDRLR
Chain of EZH2 (Q15022 whole entry partner): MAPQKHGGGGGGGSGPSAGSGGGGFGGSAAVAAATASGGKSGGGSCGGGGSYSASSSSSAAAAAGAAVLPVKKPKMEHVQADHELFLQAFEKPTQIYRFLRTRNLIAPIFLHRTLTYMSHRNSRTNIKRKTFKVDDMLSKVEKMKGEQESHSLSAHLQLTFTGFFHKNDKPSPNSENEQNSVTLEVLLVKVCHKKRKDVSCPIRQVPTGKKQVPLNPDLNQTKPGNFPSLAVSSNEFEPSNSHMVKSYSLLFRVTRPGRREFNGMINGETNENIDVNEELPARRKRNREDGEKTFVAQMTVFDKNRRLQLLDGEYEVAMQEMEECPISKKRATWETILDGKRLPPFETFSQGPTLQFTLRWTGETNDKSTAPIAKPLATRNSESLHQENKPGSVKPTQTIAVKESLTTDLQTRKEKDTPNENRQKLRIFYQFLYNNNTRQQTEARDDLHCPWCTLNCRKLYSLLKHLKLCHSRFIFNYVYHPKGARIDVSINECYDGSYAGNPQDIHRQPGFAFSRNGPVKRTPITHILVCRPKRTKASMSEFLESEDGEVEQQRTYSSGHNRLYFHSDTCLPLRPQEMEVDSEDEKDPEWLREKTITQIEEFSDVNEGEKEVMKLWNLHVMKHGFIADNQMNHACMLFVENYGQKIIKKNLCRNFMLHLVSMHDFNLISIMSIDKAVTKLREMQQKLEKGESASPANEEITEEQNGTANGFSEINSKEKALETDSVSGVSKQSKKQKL
Chain of Y641N EZH2 (Q15910 whole entry Y641N): as the sequence (Q15910 whole entry) above, with Y641N counted along it
Chain of Y641N EZH2 (O75530 whole entry partner): as the sequence (O75530 whole entry partner) above
Chain of Y641N EZH2 (Q15022 whole entry partner): as the sequence (Q15022 whole entry partner) above

IC50 (EZH2)	EC50 [1]	IC50 (Y641N EZH2)	SMILES
< 100 nM	400 to 2000 nM	–	Cc1ccc2c(C(=O)NCc3c(C)cc(C)[nH]c3=O)c(C)c(C(C)C3CCN(CC(C)(C)O)CC3)n2n1 (stereo not shown) [Compound 129, N-((4,6-dimethyl-2-oxo-1,2-dihydropyridin-3-yl)methyl)-7-(1-(1-(2-hydroxy-2-methylpropyl)piperidin-4-yl)ethyl)-2,6-dimethylpyrrolo[1,2-b]pyridazine-5-carboxamide]
< 100 nM	2000 to 10000 nM	–	COc1cc(C)[nH]c(=O)c1CNC(=O)c1c(C)c(C(C)N(C)C)n2ncccc12 (stereo not shown) [Compound 130, 7-(1-(dimethylamino)ethyl)-N-((4-methoxy-6-methyl-2-oxo-1,2-dihydropyridin-3-yl)methyl)-6-methylpyrrolo[1,2-b]pyridazine-5-carboxamide]
< 100 nM	< 400 nM	–	COc1cc(C)[nH]c(=O)c1CNC(=O)c1c(Cl)c(C(C)C2CCOCC2)n2ncccc12 (stereo not shown) [Compound 132, 6-chloro-N-((4-methoxy-6-methyl-2-oxo-1,2-dihydropyridin-3-yl)methyl)-7-(1-(tetrahydro-2H-pyran-4-yl)ethyl)pyrrolo[1,2-b]pyridazine-5-carboxamide]
< 100 nM	< 400 nM	< 100 nM	COc1cc(C)[nH]c(=O)c1CNC(=O)c1c(C)c(C(C)C2CCN(CC(F)(F)F)CC2)n2ncccc12 (stereo not shown) [Compound 133, N-((4-methoxy-6-methyl-2-oxo-1,2-dihydropyridin-3-yl)methyl)-6-methyl-7-(1-(1-(2,2,2-trifluoroethyl)piperidin-4-yl)ethyl)pyrrolo[1,2-b]pyridazine-5-carboxamide]
< 100 nM	400 to 2000 nM	–	COc1cc(C)[nH]c(=O)c1CNC(=O)c1c(C)c(C(C)C2CCN(CCC(F)(F)F)CC2)n2ncccc12 (stereo not shown) [Compound 134, N-((4-methoxy-6-methyl-2-oxo-1,2-dihydropyridin-3-yl)methyl)-6-methyl-7-(1-(1-(3,3,3-trifluoropropyl)piperidin-4-yl)ethyl)pyrrolo[1,2-b]pyridazine-5-carboxamide]
< 100 nM	< 400 nM	1000 to 10000 nM	COc1cc(C)[nH]c(=O)c1CNC(=O)c1c(C)c(C(C)C2CCN(C(=O)C(C)(F)F)CC2)n2ncccc12 (stereo not shown) [Compound 135, 7-(1-(1-(2,2-difluoropropanoyl)piperidin-4-yl)ethyl)-N-((4-methoxy-6-methyl-2-oxo-1,2-dihydropyridin-3-yl)methyl)-6-methylpyrrolo[1,2-b]pyridazine-5-carboxamide]
< 100 nM	< 400 nM	–	COc1cc(C)[nH]c(=O)c1CNC(=O)c1c(C)c(C(C)C2CCN(C(=O)C(C)(C)F)CC2)n2ncccc12 (stereo not shown) [Compound 136, 7-(1-(1-(2-fluoro-2-methylpropanoyl)piperidin-4-yl)ethyl)-N-((4-methoxy-6-methyl-2-oxo-1,2-dihydropyridin-3-yl)methyl)-6-methylpyrrolo[1,2-b]pyridazine-5-carboxamide]
< 100 nM	< 400 nM	–	COc1cc(C)[nH]c(=O)c1CNC(=O)c1c(C)c(C(C)C2CCN(C(=O)CC(F)(F)F)CC2)n2ncccc12 (stereo not shown) [Compound 137, N-((4-methoxy-6-methyl-2-oxo-1,2-dihydropyridin-3-yl)methyl)-6-methyl-7-(1-(1-(3,3,3-trifluoropropanoyl)piperidin-4-yl)ethyl)pyrrolo[1,2-b]pyridazine-5-carboxamide]
< 100 nM	< 400 nM	1000 to 10000 nM	COc1cc(C)[nH]c(=O)c1CNC(=O)c1c(C)c(C(C)C2CCN(C(=O)C(F)F)CC2)n2ncccc12 (stereo not shown) [Compound 138, 7-(1-(1-(2,2-difluoroacetyl)piperidin-4-yl)ethyl)-N-((4-methoxy-6-methyl-2-oxo-1,2-dihydropyridin-3-yl)methyl)-6-methylpyrrolo[1,2-b]pyridazine-5-carboxamide]
< 100 nM	< 400 nM	< 100 nM	COc1cc(C)[nH]c(=O)c1CNC(=O)c1c(C)c(C(C)C2CCN(C(=O)C(F)(F)F)CC2)n2ncccc12 (stereo not shown) [Compound 139, N-((4-methoxy-6-methyl-2-oxo-1,2-dihydropyridin-3-yl)methyl)-6-methyl-7-(1-(1-(2,2,2-trifluoroacetyl)piperidin-4-yl)ethyl)pyrrolo[1,2-b]pyridazine-5-carboxamide]
< 100 nM	< 400 nM	1000 to 10000 nM	COc1cc(C)[nH]c(=O)c1CNC(=O)c1c(C)c(C(C)C2CCN(CC(C)(F)F)CC2)n2ccncc12 (stereo not shown) [Compound 140, 6-(1-(1-(2,2-difluoropropyl)piperidin-4-yl)ethyl)-N-((4-methoxy-6-methyl-2-oxo-1,2-dihydropyridin-3-yl)methyl)-7-methylpyrrolo[1,2-a]pyrazine-8-carboxamide]
< 100 nM	< 400 nM	< 100 nM	COc1cc(C)[nH]c(=O)c1CNC(=O)c1c(Cl)c(C(C)C2CCN(CC(C)(C)O)CC2)n2ncccc12 (stereo not shown) [Compound 142, 6-chloro-7-(1-(1-(2-hydroxy-2-methylpropyl)piperidin-4-yl)ethyl)-N-((4-methoxy-6-methyl-2-oxo-1,2-dihydropyridin-3-yl)methyl)pyrrolo[1,2-b]pyridazine-5-carboxamide]
< 100 nM	< 400 nM	–	COc1cc(C)[nH]c(=O)c1CNC(=O)c1c(C)c(C(C)C2CCN(CC(C)(F)F)CC2)n2ncccc12 (stereo not shown) [Compound 143, 7-(1-(1-(2,2-difluoropropyl)piperidin-4-yl)ethyl)-N-((4-methoxy-6-methyl-2-oxo-1,2-dihydropyridin-3-yl)methyl)-6-methylpyrrolo[1,2-b]pyridazine-5-carboxamide]
< 100 nM	< 400 nM	–	COc1cc(C)[nH]c(=O)c1CNC(=O)c1c(C)c(C(C)C2CCN(CC(F)F)CC2)n2ncccc12 (stereo not shown) [Compound 145, 7-(1-(1-(2,2-difluoroethyl)piperidin-4-yl)ethyl)-N-((4-methoxy-6-methyl-2-oxo-1,2-dihydropyridin-3-yl)methyl)-6-methylpyrrolo[1,2-b]pyridazine-5-carboxamide]
